Laboratory results taken from paper PMC7932537, “Quantitative profiling of protease specificity” (PLoS Computational Biology, 2021).

tested on: MMP-2; assay: Substrate phage display with NGS: relative probability (RP) of P3-P1' tetramer clusters; assay type: biochemical, human; settings: MMP2 - no binning; average relative probability (RP) of the P3-P1' tetramer; redundant tetramers have been averaged out

| Substance | avg_RP |
| --- | --- |
| PASM | 32.7286 |
| AWNM | 2.0017 |
| VWHL | 10.1663 |
| AHPL | 24.4555 |
| YAHY | 10.8158 |
| TWRL | 0 |
| MFSL | 0.2905 |
| VEPL | 2.5219 |
| HRSI | 0.1819 |
| AGHL | 15.0568 |
| GNFL | 0.2435 |
| WASM | 16.5169 |
| ALDL | 2.4602 |
| VDQL | 0.0432 |
| PDQL | 0.2814 |
| AQMI | 2.3525 |
| VAWL | 32.2185 |
| VYAL | 19.6906 |
| NLPL | 4.8994 |

| Substance | avg_RP |
| --- | --- |
| AWHL | 5.5662 |
| PMGM | 28.512 |
| PLSI | 32.2576 |
| VMYL | 5.0318 |
| LWRI | 0 |
| PNRL | 14.3701 |
| TMWL | 5.1973 |
| SYPL | 1.464 |
| PAWL | 34.876 |
| SGAY | 6.7841 |
| VNFL | 7.2989 |
| GAWL | 11.7256 |
| IWAL | 5.7953 |
| VMKL | 0.3599 |
| HQSL | 10.5998 |
| TMAL | 0.4939 |
| MLGL | 16.6463 |
| IDLL | 0.1325 |
| YQSL | 16.6669 |

| Substance | avg_RP |
| --- | --- |
| SMYL | 1.2279 |
| YAHM | 12.8446 |
| IYGL | 9.4242 |
| AFHI | 0.4414 |
| GAKL | 0.1271 |
| VWGL | 12.3495 |
| VYRL | 5.0832 |
| AGRL | 3.4801 |
| VWRL | 0.9525 |
| MHEL | 0.0484 |
| HMAL | 5.2214 |
| IRHL | 22.5548 |
| IRWL | 25.5858 |
| YMHI | 0 |
| PLNL | 34.7054 |
| PHCL | 0.499 |
| ADLI | 0.5875 |
| PQHL | 31.2196 |
| AFTM | 0 |

same assay, conditions: MMP2 - no binning; average relative probability of the P3-P1' tetramer; redundant tetramers have been averaged out

| Substance | avg_RP |
| --- | --- |
| GFQL | 0.0467 |
| PHSM | 24.6739 |
| LANL | 34.4823 |
| LAAM [P3-P1' tetramer cluster] | 30.6825 |
| AHSL | 21.0212 |
| SWAW | 0.0563 |
| LSNL | 32.5007 |
| PASL [P3-P1' tetramer cluster] | 36.4285 |
| GYSL | 0.0471 |
| IESM | 2.7483 |
| SGNL | 12.7361 |
| ARML | 2.9901 |
| AWYL | 0.0964 |
| VMNL | 18.6016 |
| LMRL | 0.1149 |
| VQLL | 8.0197 |
| AFNL | 16.2959 |
| GANL | 13.1428 |
| VNSL | 13.3292 |
| LGCL | 12.7261 |
| IYNL | 11.935 |
| PEML | 16.0599 |

| Substance | avg_RP |
| --- | --- |
| PLSQ | 26.5842 |
| ASAL | 28.9092 |
| FSQL | 9.0646 |
| IYEL | 0.2382 |
| YASM | 24.1553 |
| WLNL | 0.1218 |
| VLNM | 19.025 |
| PSML | 33.0235 |
| VLMM | 2.7364 |
| GLAL | 0.6848 |
| PTSL | 28.926 |
| MSSL | 27.4466 |
| LAKL | 21.2737 |
| VMSL | 14.6983 |
| VFNL | 14.497 |
| GASL | 9.5377 |
| WLAL | 1.2175 |
| AQDL | 0.5121 |
| VNYL | 8.4267 |
| IGNF | 24.8743 |
| SWSL | 0.0547 |
| YGNM | 13.8836 |

| Substance | avg_RP |
| --- | --- |
| PRWM | 32.3694 |
| PSFL | 29.537 |
| MDLL | 0.2864 |
| LASQ | 21.0724 |
| AMNI | 4.1669 |
| MLHM | 4.7134 |
| SGEL | 0.1149 |
| VYAW | 0.6193 |
| LGMM | 22.231 |
| GAAL | 15.7207 |
| AYNM | 10.8408 |
| ARFL | 8.5771 |
| SLPL | 8.6373 |
| PWLQ | 0.2574 |
| SMRL | 0 |
| YRHM | 0.3212 |
| VNLL | 0.5682 |
| SQSL | 5.003 |
| WAPL | 23.9342 |
| GMRL | 0 |
| VFGL | 12.5523 |
| MRHL | 14.413 |

| Substance | avg_RP |
| --- | --- |
| GFSL | 0.0975 |
| LGHL [P3-P1' tetramer cluster] | 31.1653 |
| VWGI | 3.0103 |
| LHSL | 18.7402 |
| LRHL | 22.7972 |
| VRSL | 12.3051 |
| SYWL | 0.9791 |
| GWAL | 0.0916 |
| MLAL | 5.6722 |
| YANM | 22.6837 |
| IFRL | 0.1412 |
| ASHM | 12.3873 |
| SFAL | 0.5631 |
| PGWL | 33.1284 |
| LLDL | 0.3542 |
| FSNL | 24 |
| WGNL | 14.7295 |
| PVQL | 26.094 |
| INML | 5.8285 |
| SGQL | 1.0305 |
| ARWL | 19.0362 |
| AQPL | 14.4283 |

| Substance | avg_RP |
| --- | --- |
| VFWM | 10.3215 |
| PMQL | 27.6586 |
| RRNL | 6.1579 |
| YMGL | 0.0982 |
| FSHM | 11.0227 |
| ALNL | 17.2813 |
| LWTL | 0.0853 |
| AMRM | 0.1716 |
| FLHM | 0.2069 |
| PNWL | 26.5667 |
| PAGL [P3-P1' tetramer cluster] | 36.0156 |
| PEWM | 12.3271 |
| PFRL | 16.3818 |
| PLPQ | 24.381 |
| AQNL | 19.4627 |
| VYDL | 1.2439 |
| LWKL | 0 |
| LRNI | 19.0698 |
| IHFL | 4.5373 |
| LAHI | 25.9365 |

same assay, conditions: MMP2 - no binning; average relative probability of the tetramer; redundant tetramers averaged out

| Substance | avg_RP |
| --- | --- |
| VRQL | 16.7722 |
| PVWM | 25.8126 |
| PQWM | 29.0885 |
| QQGL | 6.4014 |
| IRML | 12.7446 |
| ASHL | 19.8208 |
| PYKY | 4.8733 |
| PGLL | 24.9611 |
| ANNL | 18.8719 |
| PRNV | 26.6015 |
| LRAM | 29.407 |
| PKLL | 15.3454 |
| PYGM | 27.2726 |
| PQGM | 29.6059 |
| TLAL | 1.9537 |
| AIPL | 24.8904 |
| PGRL | 29.6024 |
| WSWL | 7.8776 |
| TNWL | 15.348 |
| PSAQ | 28.0379 |
| PQRM | 19.3209 |
| WFNL | 0 |

| Substance | avg_RP |
| --- | --- |
| ALGI | 18.2164 |
| YASL | 26.9916 |
| MLHL | 8.4169 |
| PWAW | 10.3227 |
| PLGL | 35.3536 |
| TRWL | 15.1455 |
| PWKL | 9.9628 |
| IAAM | 28.6184 |
| WYGI | 0.0533 |
| ARKL | 0 |
| LMGL | 28.5499 |
| PEWY | 14.0361 |
| LNST | 0.4784 |
| VRGL | 29.092 |
| VWNL | 14.4124 |
| IRFL | 12.1004 |
| PTAL | 32.8941 |
| SGAL | 13.4712 |
| SLAW | 18.2943 |
| PNAF | 16.8865 |
| ARPL | 27.8706 |
| ISNW | 26.0602 |

| Substance | avg_RP |
| --- | --- |
| SRAL | 12.4506 |
| YGNL | 24.0019 |
| LRNL | 27.1336 |
| AIHL | 13.4941 |
| PLKI | 14.0985 |
| PLHM | 30.0095 |
| SYNL | 6.0933 |
| LLSL | 2.0177 |
| IATL | 24.2778 |
| GRAM | 2.5449 |
| WMNL | 0 |
| AYNF | 6.7246 |
| VYNL | 19.1818 |
| PQWI | 28.1021 |
| VEML | 2.1238 |
| PRSH | 18.6153 |
| VRYL | 18.3724 |
| GLYL | 0.0762 |
| PRWL | 34.1809 |
| MNSL | 18.7113 |
| PRVL | 13.9079 |
| VRAH | 14.8064 |

| Substance | avg_RP |
| --- | --- |
| VRKL | 0 |
| ANSL | 10.0738 |
| LAAI | 28.8382 |
| YHHL | 0 |
| PYSW | 16.4352 |
| GRHL | 3.5979 |
| WHGL | 0.5588 |
| YMSL | 0.0725 |
| VAAV | 19.031 |
| VRHV | 9.5401 |
| PLGM | 34.1118 |
| PMWS | 5.1021 |
| ARGL | 25.9476 |
| LSSL | 24.2822 |
| GRNL | 8.8117 |
| VRMM | 13.0027 |
| IGEI | 19.2988 |
| LAAW | 24.7038 |
| VSFL | 5.9184 |
| PFSN | 0.4602 |

same assay, conditions: tetramer annotation of MMP-2 cleavage sites in all substrates from MEROPS

| Substance | relative probability (RP) |
| --- | --- |
| AAEL | 15.51 |
| AAGL | 29.36 |

same assay, conditions: tetramer annotation of MMP-2 cleavage sites in physiologic substrates from MEROPS

| Substance | relative probability (RP) |
| --- | --- |
| FAPG | 0.08 |

same assay, conditions: tetramer clusters unique to the MMP-2 selectome, MMP-2 RP

| Substance | relative_probability |
| --- | --- |
| LAAM [P3-P1' tetramer cluster] | 30.68 |
| LGHL [P3-P1' tetramer cluster] | 31.17 |
| MNWL [P3-P1' tetramer cluster] | 30.10 |
| IGQL [P3-P1' tetramer cluster] | 30.24 |

same assay, conditions: tetramer probability in MMP2 set / naive library; 200 nM protease, 2 h, 37°C

| Substance | relative probability (RP) |
| --- | --- |
| PASL [P3-P1' tetramer cluster] | 36.4285 |
| PAGL [P3-P1' tetramer cluster] | 36.0156 |

same assay, conditions: tetramer projected onto MMP-2 cleavage sites determined by Prudova et al. (2010)

| Substance | relative probability (RP) |
| --- | --- |
| PASL [P3-P1' tetramer cluster] | 36.43 |
